The values below come from ChEMBL document CHEMBL6134860, “Discovery and optimization of a novel carboxamide scaffold with selective antimalarial activity” (Eur J Med Chem, 2025).

The test system of one data set is Plasmodium falciparum. Nature of the data set: microbe, parasite or virus in culture. The data set is classed as functional, organism-based. To be noted: W2, 72 h.
Data set [1] in a line: Cytotoxicity against human HepG2 cells measured after 72 hrs by hoechst 33342 staining based imaging assay. Type of data set: toxicity, cell-based.

For `CN(C(=O)c1cn(-c2ccc(Cl)cc2)nn1)c1ccc(Cl)cc1`, the EC50 in the data set on Plasmodium falciparum (read-out: EC50) and in the data set with Plasmodium falciparum (read-out: pEC50 (converted)) was > 10 µM throughout. Further, the CC50 at 72 h in data set [1] (read-out: CC50) and in data set [1] (read-out: pCC50 (converted)) was > 10 µM each time.

On to `Cc1ccc(-c2ncc(C(=O)N(C)c3ccc(Cl)cc3)s2)cc1`, for which the EC50 in the data set with Plasmodium falciparum (read-out: EC50) and with Plasmodium falciparum (read-out: pEC50 (converted)) was > 10 µM in each case. For the same molecule, the CC50 at 72 h in data set [1] (read-out: CC50) and in data set [1] (read-out: pCC50 (converted)) was > 10 µM in each case.

As to `Cc1ccc(-n2cnc(N(C)C(=O)c3ccc(Cl)cc3)n2)cc1`, the results for the EC50 in the data set on Plasmodium falciparum (read-out: EC50) and with Plasmodium falciparum (read-out: pEC50 (converted)) were > 1.8 µM and > 1.82 µM, respectively. For the same molecule, the CC50 at 72 h in data set [1] (read-out: CC50) and in data set [1] (read-out: pCC50 (converted)) was > 10 µM each time.

Regarding `CN(C(=O)c1ncc(-c2ccc(Cl)cc2)[nH]1)c1ccc(Cl)cc1`, the EC50 in the data set with Plasmodium falciparum (read-out: EC50) is > 7.09 µM; in the data set on Plasmodium falciparum (read-out: pEC50 (converted)), > 7.08 µM. For the same molecule, the CC50 at 72 h in data set [1] (read-out: CC50) and in data set [1] (read-out: pCC50 (converted)) was > 10 µM in each case.

Regarding `CN(C(=O)c1ccc(Cl)cc1)c1ncn(-c2ccc(Cl)cc2)n1`, the figures for the EC50 in the data set with Plasmodium falciparum (read-out: EC50) and in the data set with Plasmodium falciparum (read-out: pEC50 (converted)) were > 1.52 µM and > 1.51 µM, respectively. Also, the CC50 at 72 h in data set [1] (read-out: CC50) and in data set [1] (read-out: pCC50 (converted)) was > 10 µM throughout.

Regarding `Cc1ccc(-n2cnc(C(=O)N(C)c3ccc(Cl)cc3)n2)cc1`, the EC50 with Plasmodium falciparum (read-out: EC50) is 1.68 µM; in the data set on Plasmodium falciparum (read-out: pEC50 (converted)), 1.7 µM. Also, the CC50 at 72 h in data set [1] (read-out: CC50) and in data set [1] (read-out: pCC50 (converted)) was > 10 µM throughout.

In the case of `COc1ccc(-n2cnc(C(=O)N(C)c3cccc(C)c3)n2)cc1`, the figures for the EC50 in the data set with Plasmodium falciparum (read-out: EC50) and in the data set with Plasmodium falciparum (read-out: pEC50 (converted)) were > 5.77 µM and > 5.75 µM, respectively. Moreover, the CC50 at 72 h in data set [1] (read-out: CC50) and in data set [1] (read-out: pCC50 (converted)) was > 10 µM in each case.

Take `Cc1ccc(-n2cnc(C(=O)Nc3ccc(Cl)cc3)n2)cc1`: the EC50 in the data set with Plasmodium falciparum (read-out: EC50) and in the data set with Plasmodium falciparum (read-out: pEC50 (converted)) was > 10 µM in each case. The CC50 at 72 h in data set [1] (read-out: CC50) and in data set [1] (read-out: pCC50 (converted)) was > 10 µM in each case.

For the molecule `Cc1nc(-c2ccc(Cl)cc2)oc1C(=O)N(C)c1ccc(Cl)cc1`, the EC50 in the data set with Plasmodium falciparum (read-out: EC50) is > 4.34 µM; in the data set on Plasmodium falciparum (read-out: pEC50 (converted)), > 4.37 µM. Besides, the CC50 at 72 h in data set [1] (read-out: CC50) and in data set [1] (read-out: pCC50 (converted)) was > 10 µM throughout.

With `Cc1ccc(-n2cc(C(=O)N(C)c3ccc(Cl)cc3)nn2)cc1`, the EC50 in the data set with Plasmodium falciparum (read-out: EC50) and in the data set with Plasmodium falciparum (read-out: pEC50 (converted)) was > 10 µM each time. In addition, the CC50 at 72 h in data set [1] (read-out: CC50) and in data set [1] (read-out: pCC50 (converted)) was > 10 µM in each case.

For `COc1ccc(-n2cnc(C(=O)N(C)c3ccc(C)c(C)c3)n2)cc1`, the EC50 in the data set with Plasmodium falciparum (read-out: EC50) and with Plasmodium falciparum (read-out: pEC50 (converted)) was > 10 µM in each case. Besides, the CC50 at 72 h in data set [1] (read-out: CC50) and in data set [1] (read-out: pCC50 (converted)) was > 10 µM each time.

For `CN(C(=O)c1ncn(-c2ccc(Cl)cc2)n1)c1ccccc1`, the EC50 with Plasmodium falciparum (read-out: EC50) and in the data set with Plasmodium falciparum (read-out: pEC50 (converted)) was > 13.8 µM throughout. The CC50 at 72 h in data set [1] (read-out: CC50) and in data set [1] (read-out: pCC50 (converted)) was > 10 µM each time.

As for `Cc1ccc(-c2cnc(C(=O)N(C)c3ccc(Cl)cc3)s2)cc1`, the EC50 with Plasmodium falciparum (read-out: EC50) and in the data set on Plasmodium falciparum (read-out: pEC50 (converted)) was > 10 µM in each case. The CC50 at 72 h in data set [1] (read-out: CC50) and in data set [1] (read-out: pCC50 (converted)) was > 10 µM each time.

With `CCc1ccc(NC(=O)c2ncn(-c3ccc(Cl)cc3)n2)cc1`, the EC50 in the data set on Plasmodium falciparum (read-out: EC50) is > 6.93 µM; with Plasmodium falciparum (read-out: pEC50 (converted)), > 6.92 µM. For the same molecule, the CC50 at 72 h in data set [1] (read-out: CC50) and in data set [1] (read-out: pCC50 (converted)) was > 10 µM in each case.

Turning to `[2H]C([2H])([2H])N(C(=O)c1ncc(-c2ccc(Cl)cc2)o1)c1ccc(Cl)cc1`, the EC50 was 388 µM in the data set with Plasmodium falciparum (read-out: EC50) and 0.389 µM in the data set on Plasmodium falciparum (read-out: pEC50 (converted)).

Regarding `Cc1ccc(N(C)C(=O)c2cn(-c3ccc(Cl)cc3)nn2)cc1`, the EC50 in the data set on Plasmodium falciparum (read-out: EC50) and in the data set with Plasmodium falciparum (read-out: pEC50 (converted)) was > 10 µM each time. In addition, the CC50 at 72 h in data set [1] (read-out: CC50) and in data set [1] (read-out: pCC50 (converted)) was > 10 µM throughout.

Turning to `CN(C(=O)c1ncc(-c2ccc(Cl)cc2)s1)c1ccc(Cl)cc1`, the EC50 was > 6.75 µM in the data set with Plasmodium falciparum (read-out: EC50) and > 6.76 µM in the data set with Plasmodium falciparum (read-out: pEC50 (converted)). For the same molecule, the CC50 at 72 h in data set [1] (read-out: CC50) and in data set [1] (read-out: pCC50 (converted)) was > 10 µM in each case.

On to `Cc1ccc(-c2nc(C)c(C(=O)N(C)c3ccc(Cl)cc3)o2)cc1`, for which the figures for the EC50 in the data set with Plasmodium falciparum (read-out: EC50) and with Plasmodium falciparum (read-out: pEC50 (converted)) were > 8.87 µM and > 8.91 µM, respectively. Besides, the CC50 at 72 h in data set [1] (read-out: CC50) and in data set [1] (read-out: pCC50 (converted)) was > 10 µM throughout.

Regarding `CN(C(=O)c1cncc(-c2ccc(Cl)cc2)c1)c1ccc(Cl)cc1`, the CC50 at 72 h in data set [1] (read-out: CC50) and in data set [1] (read-out: pCC50 (converted)) was > 10 µM throughout.

For the molecule `O=C(Nc1ccc([N+](=O)[O-])cc1)c1ncn(-c2ccc(Cl)cc2)n1`, the EC50 in the data set on Plasmodium falciparum (read-out: EC50) and in the data set on Plasmodium falciparum (read-out: pEC50 (converted)) was > 10 µM in each case. The CC50 at 72 h in data set [1] (read-out: CC50) and in data set [1] (read-out: pCC50 (converted)) was > 10 µM in each case.

As for `Cc1ccc(-c2ncc(C(=O)N(C)c3ccc(Cl)cc3)o2)cc1`, the EC50 in the data set on Plasmodium falciparum (read-out: EC50) and in the data set with Plasmodium falciparum (read-out: pEC50 (converted)) was > 10 µM in each case. Moreover, the CC50 at 72 h in data set [1] (read-out: CC50) and in data set [1] (read-out: pCC50 (converted)) was > 10 µM each time.

`Cc1ccc(-c2cnc(C(=O)N(C)c3ccc(Cl)cc3)[nH]2)cc1`: the EC50 in the data set with Plasmodium falciparum (read-out: EC50) and in the data set with Plasmodium falciparum (read-out: pEC50 (converted)) was > 10 µM throughout. The CC50 at 72 h in data set [1] (read-out: CC50) and in data set [1] (read-out: pCC50 (converted)) was > 10 µM each time.

For the molecule `Cc1ccc(C(=O)Nc2ncn(-c3ccc(Cl)cc3)n2)cc1`, the EC50 with Plasmodium falciparum (read-out: EC50) and in the data set with Plasmodium falciparum (read-out: pEC50 (converted)) was > 10 µM in each case. Further, the CC50 at 72 h in data set [1] (read-out: CC50) and in data set [1] (read-out: pCC50 (converted)) was > 10 µM throughout.
